# Laboratory results as given in PMC11438102, “Modulation of cannabinoid receptor 2 alters neuroinflammation and reduces formation of alpha-synuclein aggregates in a rat model of nigral synucleinopathy” (Journal of Neuroinflammation, 2024).
# Test system: RAW264.7 macrophages
# Assay: Phagocytosis assay with pHrodo green E. coli bioparticles
# Assay type: cell-based
# Conditions: additional incubation, regardless of LPS dose
# Procedure: The RAW264.7 macrophage cells (ATCC Cat# TIB-71, RRID: CVCL_0493) were grown in sterile media which consisted of DMEM high glucose, 10% FBS, 2mM L-glutamine, 1x Pen-strep and 1x sodium pyruvate in a humidified 5% CO2 incubator at 37°C. RAW264.7 were maintained in […] tissue culture flasks and plated at a density of 1 × 10^4 cells in triplicate in 96-well plates for assays. Cells were stimulated with either lipopolysaccharide (LPS O111:B4; Sigma Cat#L2630) at 100ng/mL or 1000ng/mL (750EU/mL or 7500 EU/mL, respectively). One hour prior to this stimulation the cells were pre-treated with the CB2 inverse agonist SMM-189 at 3μM or 7 μm or its vehicle. Specifically for cell culture experiments, SMM-189 was formulated with 40% ethanol (v/v), 20% tween-20 (v/v) and 40% saline (v/v). A phagocytosis assay was conducted 24 h after LPS.
# The phagocytosis assay was performed using pHrodo green E. coli bioparticles (Invitrogen Cat# P35366) according to the manufacturer’s instructions. Five images per well were then collected every 30 min for 24 h on an EVOS M7000 microscope (Invitrogen, ThermoFisher Scientific). The cells were maintained for this duration using an on-stage incubator kept at 37°C and 5% CO2. Analysis of the collected images was performed using EVOS Celleste software (version 5.0), which counted the cells and then measured the integrated optical density of fluorescence within each well over the 24-hour time course. Analysis was conducted on the average integrated optical density across triplicate wells. Results were consistent across duplicate experimental replicates.
compound,measurement,value
"C=C1[C@@H](C)[C@H]2[C@H](Cc3ccccc3)NC(=O)[C@]23[C@H](OC(C)=O)/C=C/[C@@](C)(O)C(=O)[C@@H](C)C/C=C/[C@H]3[C@@H]1O [cytochalasin D, reference compound]",GFP expression (phagocytosis control),significantly restricted
